Publication PMC10585773, “Green synthesis of highly functionalized heterocyclic bearing pyrazole moiety for cancer-targeted chemo/radioisotope therapy” (BMC Chemistry, 2023)

Key:
HCT-116 = assay: MTT assay, in-vitro cytotoxicity against HCT-116; assay type: cell-based; conditions: Homo sapiens, HCT-116 colorectal carcinoma cells, scale: 1–10 very strong, 11–20 strong, 21–50 moderate, 51–100 weak, above 100 non-cytotoxic
Text: (§1) Hepatocellular carcinoma (HepG2), and colorectal carcinoma (HCT-116). The cell lines were obtained from ATCC via Holding company for biological products and vaccines (VACSERA), Cairo, Egypt.
(§2) The reagents RPMI-1640 medium, MTT and DMSO (sigma co., St. Louis, USA), Fetal Bovine serum (GIBCO, UK). 5-Fluorouracil was used as a standard anticancer drug for comparison.
(§3) HepG2 and (HCT-116 were used to determine the inhibitory effects of compounds on cell growth using the MTT assay. The relative cell viability in percentage was calculated as (A570 of treated samples/A570 of untreated sample) X 100.

HepG2 = assay: MTT assay, in-vitro cytotoxicity against HepG2; assay type: cell-based; conditions: Homo sapiens, HepG2 hepatocellular carcinoma cells, scale: 1–10 very strong, 11–20 strong, 21–50 moderate, 51–100 weak, above 100 non-cytotoxic
Text: as §1, §2, §3

Compound | IC50 (HCT-116) [µM] | IC50 (HepG2) [µM]
CCOc1nc(-c2ccccc2)nc2c1c(-c1ccccc1)nn2-c1ccccc1 [Compound 8, 4-Ethoxy-1,3,6-triphenyl-1H-pyrazolo[3,4-d]pyrimidine] | 17.4 ± 3.9 | 12.1 ± 5.1
Nc1nc(-c2c(-c3ccccc3)nn(-c3ccccc3)c2N)nc2c1c(-c1ccccc1)nn2-c1ccccc1 [Compound 9, 6-(5-Amino-1,3-diphenyl-1H-pyrazol-4-yl)-1,3-diphenyl-1H-pyrazolo[3,4-d]pyrimidin-4-amine] | 33.6 ± 2.1 | 55.7 ± 2.7
O=c1[nH]cc(F)c(=O)[nH]1 [Compound 5-Fu, 5-Fluorouracil, reference compound] | 5.35 ± 0.3 | 7.86 ± 0.5
Nc1n[nH]c2c1c(-c1ccccc1)nn2-c1ccccc1 [Compound 5, 4,6-Diphenyl-1,6-dihydropyrazolo[3,4-c]pyrazol-3-amine] | 13.8 ± 3.9 | 8.8 ± 5.1
Nc1nc(=O)[nH]c2c1c(-c1ccccc1)nn2-c1ccccc1 [Compound 6, 4-Amino-1,3-diphenyl-1,7-dihydro-6H-pyrazolo[3,4-d]pyrimidin-6-one] | 51 ± 2.7 | 91.4 ± 4.2
NC(=O)c1c(N)nc2c(c(-c3ccccc3)nn2-c2ccccc2)c1N [Compound 3, 4,6-Diamino-1,3-diphenyl-1H-pyrazolo[3,4-b]pyridine-5-carboxamide] | 29.4 ± 2.3 | 22.8 ± 2.1
N#Cc1c(N)nc2c(c(-c3ccccc3)nn2-c2ccccc2)c1N [Compound 2, 4,6-Diamino-1,3-diphenyl-1H-pyrazolo[3,4-b]pyridine-5-carbonitrile] | 7.7 ± 1.8 | 9.2 ± 2.8
Nc1c(C(=O)O)[nH]c2c1c(-c1ccccc1)nn2-c1ccccc1 [Compound 4, 4-Amino-1,3-diphenyl-1,6-dihydropyrrolo[2,3-c]pyrazole-5-carboxylic acid] | 15.2 ± 2.4 | 14.5 ± 2.8
Nc1nc(=S)[nH]c2c1c(-c1ccccc1)nn2-c1ccccc1 [Compound 7, 4-Amino-1,3-diphenyl-1,7-dihydro-6H-pyrazolo[3,4-d]pyrimidine-6-thione] | 13.1 ± 2.3 | 10.2 ± 2.1
